For one data set, the target named is T1, COX-2 (Mus musculus, UniProt Q05769).
T1 construct: endogenous in cells; host or cells: thioglycollate-elicited peritoneal macrophages of male C57BL-6J mice, stimulated with LPS
T1 sequence (Q05769 18-604): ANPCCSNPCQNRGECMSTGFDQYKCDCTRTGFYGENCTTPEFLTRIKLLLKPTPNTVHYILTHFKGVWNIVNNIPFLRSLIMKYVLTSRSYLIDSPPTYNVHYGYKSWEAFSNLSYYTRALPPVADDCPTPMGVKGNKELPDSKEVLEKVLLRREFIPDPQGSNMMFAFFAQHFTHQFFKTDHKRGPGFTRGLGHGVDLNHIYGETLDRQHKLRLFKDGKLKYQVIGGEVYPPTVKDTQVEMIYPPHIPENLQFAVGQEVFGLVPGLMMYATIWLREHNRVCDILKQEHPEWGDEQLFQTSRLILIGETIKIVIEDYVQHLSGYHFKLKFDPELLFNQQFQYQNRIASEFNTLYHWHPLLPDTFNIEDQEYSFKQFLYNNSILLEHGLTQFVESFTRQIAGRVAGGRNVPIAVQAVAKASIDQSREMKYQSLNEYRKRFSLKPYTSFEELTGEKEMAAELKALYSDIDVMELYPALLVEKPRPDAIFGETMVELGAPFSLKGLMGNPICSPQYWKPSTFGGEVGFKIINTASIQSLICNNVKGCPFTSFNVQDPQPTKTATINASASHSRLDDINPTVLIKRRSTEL
Put plainly: COX-2 assay: PGE2 release (RIA) from LPS-stimulated mouse peritoneal macrophages. The data set is classed as cell-based, mice. The settings on record: LPS 1 mg/L 9 h, PGE2 by RIA. Here is the method:
Cell culture: Adherent macrophages were harvested from the peritoneal cells of male mice (C57BL-6J, Level 2, from Experiment Animal Center, Academy of Military Medical Science) 3 d after the injection (ip) of brewer thioglycollate medium (5 mL/100 g body weight). […] Cell viability was examined by trypan blue dye exclusion. All incubation procedures were performed with 5% CO2 in humidified air at 37° C.
COX-2 assay: Macrophages were incubated with test compound at different concentrations or solvent (Me2SO) for 1 h and were stimulated with LPS 1 mg/L for 9 h. The amount of PGE2 in supernatants was measured by RIA. The inhibitory ratio was calculated using the same Formula as in COX-1 assay section. Cs, Ct, Cc refer to PGE2 concentration in supernatants of LPS, test compound, and control groups, respectively.
Statistical analysis: Data were expressed as the mean±SD of more than three independent experiments. Dose-inhibitory effect curves were fit through “uphill dose response curves, variable slope” using Prism, GraphPad (version 3.00): [formula]

For data set [1], the system named is carrageenan-induced foot pad edema. The data set is described as follows: Rat carrageenan-induced foot pad edema assay. The data set is classed as in vivo. The settings on record: 10 mg/kg oral. Here is the method:
Male Sprgue-Dawley rats (190-220 g ) were fasted with free access to water at least 16 h prior experiments. The rats were dosed orally with a 1 ml suspension of test compound in vehicle (0.5% methyl cellulose and 0.025% Tween-20) or with vehicle alone. One hour later a subplantar injection of 0.1 ml of 1% solution of carageenan in 0.9% strile saline was administered to the right hind foot pad. Paw volume was measured with a displacement plethysmometer 2, 3, and 4 h after carrageenan injection.
Background: The carrageenan paw model is a standard test of acute inflammation.

Usually IC50 stands for the concentration that gives 50% inhibition. High values mean lower potency, low ones higher potency. As a reminder, the melting point is the temperature of the solid-liquid transition.

`NS(=O)(=O)c1ccc(-c2[nH]c3ccc(Cl)cc3c2-c2ccccc2)cc1` [Example 75, 2-(4-aminosulfonylphenyl)-3-phenyl-5-chloroindole]: the melting point was in the range of 297 to 299 °C. Besides, the IC50 at COX-2 was 0.143 nM. Also, in data set [1] (2 h after carrageenan), the edema (paw volume increase) was 35.6 ± 25.5% and the “inhibitory percentage of edema” value was 50.1%. In data set [1] (3 h after carrageenan), the edema (paw volume increase) amounted to 44.1 ± 31.4% and the “inhibitory percentage of edema” value came out at 54.8%. In data set [1] (4 h after carrageenan), the edema (paw volume increase) came out at 34 ± 13.6% and the “inhibitory percentage of edema” value worked out at 57.8%.

`CS(=O)(=O)c1ccc(-c2[nH]c3ccc(F)cc3c2-c2ccccc2)cc1` [Example 79, 2-(4-methylsulfonylphenyl)-3-phenyl-5-fluoroindole] had a melting point of 243 to 245 °C. At COX-2, this molecule showed an IC50 of 5 nM. In addition, in data set [1] (2 h after carrageenan), the edema (paw volume increase) is 41.8 ± 7.2% and the “inhibitory percentage of edema” value came to 41.4%. Also, in data set [1] (3 h after carrageenan), the edema (paw volume increase) came out at 47.7 ± 15.8% and the “inhibitory percentage of edema” value was found to be 51.5%. In addition, in data set [1] (4 h after carrageenan), the edema (paw volume increase) amounted to 31.6 ± 13.3% and the “inhibitory percentage of edema” value worked out at 60.8%.

In turn, `NS(=O)(=O)c1ccc(-c2[nH]c3ccc(F)cc3c2-c2ccccc2)cc1` [Example 80, 2-(4-aminosulfonylphenyl)-3-phenyl-5-fluoroindole] yielded a melting point of 302 to 304 °C. The IC50 against COX-2 is 2 nM. For the same molecule, in data set [1] (2 h after carrageenan), the edema (paw volume increase) was determined as 36.7 ± 7.4% and the “inhibitory percentage of edema” value worked out at 48.6%. Besides, in data set [1] (3 h after carrageenan), the edema (paw volume increase) turned out to be 46.6 ± 14% and the “inhibitory percentage of edema” value is listed as 52.2%. In addition, in data set [1] (4 h after carrageenan), the edema (paw volume increase) turned out to be 40.8 ± 17.6% and the “inhibitory percentage of edema” value turned out to be 49.4%.

Consider `Cc1ccc2[nH]c(-c3ccc(S(N)(=O)=O)cc3)c(-c3ccccc3)c2c1` [Example 84, 2-(4-aminosulfonylphenyl)-3-phenyl-5-methylindole], for which the melting point was 242 to 244 °C. 0.0171 nM corresponded to half-maximal inhibition against COX-2 (IC50). Moreover, in data set [1] (2 h after carrageenan), the edema (paw volume increase) came to 63.1 ± 18.1% and the “inhibitory percentage of edema” value is listed as 40.5%. In data set [1] (3 h after carrageenan), the edema (paw volume increase) came out at 65.6 ± 15.4% and the “inhibitory percentage of edema” value was 32.8%. In data set [1] (4 h after carrageenan), the edema (paw volume increase) amounted to 62.4 ± 15.7% and the “inhibitory percentage of edema” value turned out to be 22.6%.

With `CS(=O)(=O)c1ccc(-c2c(-c3ccccc3)[nH]c3ccc(Cl)cc23)cc1` [Example 87, 2-phenyl-3-(4-methylsulfonylphenyl)-5-chloroindole], the melting point was in the range of 273 to 275 °C. For the same molecule, the half-inhibitory concentration (IC50) against COX-2 stood at 0.27 nM. In data set [1] (2 h after carrageenan), the edema (paw volume increase) was 45.4 ± 9.7%. Besides, in data set [1] (3 h after carrageenan), the edema (paw volume increase) was found to be 46.9 ± 13.6% and the “inhibitory percentage of edema” value was found to be 23.4%. In addition, in data set [1] (4 h after carrageenan), the edema (paw volume increase) is 43.4 ± 13.4% and the “inhibitory percentage of edema” value is 27.9%.

For `CS(=O)(=O)c1ccc(-c2c(-c3ccc(Cl)cc3)[nH]c3ccc(Cl)cc23)cc1` [Example 89, 2-(4-chlorophenyl)-3-(4-methylsulfonylphenyl)-5-chloroindole], the melting point lay within 269 to 271 °C. On COX-2, this molecule showed an IC50 of 354 nM. For the same molecule, in data set [1] (2 h after carrageenan), the edema (paw volume increase) is 58.6 ± 15.8%. For the same molecule, in data set [1] (3 h after carrageenan), the edema (paw volume increase) came out at 66.5 ± 13.4% and the “inhibitory percentage of edema” value was 46.1%. Besides, in data set [1] (4 h after carrageenan), the edema (paw volume increase) was 58.4 ± 13.8% and the “inhibitory percentage of edema” value was found to be 29.9%.

For the molecule `COc1ccc(-c2[nH]c3ccc(Cl)cc3c2-c2ccc(S(C)(=O)=O)cc2)cc1` [Example 90, 2-(4-methoxyphenyl)-3-(4-methylsulfonylphenyl)-5-chloroindole], the melting point fell in the range of 246 to 248 °C. Also, the IC50 at COX-2 stood at 2.81 nM. In data set [1] (2 h after carrageenan), the edema (paw volume increase) worked out at 44.2 ± 11.9% and the “inhibitory percentage of edema” value is 38.1%. Besides, in data set [1] (3 h after carrageenan), the edema (paw volume increase) was found to be 46.5 ± 5.7% and the “inhibitory percentage of edema” value is recorded as 52.4%. For the same molecule, in data set [1] (4 h after carrageenan), the edema (paw volume increase) was 40.8 ± 5.3% and the “inhibitory percentage of edema” value was 49.6%.

In turn, `CS(=O)(=O)c1ccc(-c2c(-c3ccccc3F)[nH]c3ccc(Cl)cc23)cc1` [Example 92, 2-(2-fluorophenyl)-3-(4-methylsulfonylphenyl)-5-chloroindole] displayed a melting point of 246 to 248 °C. The molecule further gave a half-inhibitory concentration (IC50) on COX-2 of 1.76 nM. In data set [1] (2 h after carrageenan), the edema (paw volume increase) turned out to be 31.3 ± 17% and the “inhibitory percentage of edema” value was 56.2%. In data set [1] (3 h after carrageenan), the edema (paw volume increase) turned out to be 44.6 ± 13.7% and the “inhibitory percentage of edema” value was determined as 54.3%. In addition, in data set [1] (4 h after carrageenan), the edema (paw volume increase) was 35.4 ± 18.8% and the “inhibitory percentage of edema” value is given as 56.1%.

Regarding `CC(=O)Oc1ccccc1-c1[nH]c2ccc(Cl)cc2c1-c1ccc(S(C)(=O)=O)cc1` [Example 93, 2-(2-acetyloxyphenyl)-3-(4-methylsulfonylphenyl)-5-chloroindole], the melting point lay within 238 to 240 °C. Also, the IC50 against COX-2 amounted to 6 nM. For the same molecule, in data set [1] (2 h after carrageenan), the edema (paw volume increase) is 49.5 ± 8.2% and the “inhibitory percentage of edema” value is reported as 30.7%. Besides, in data set [1] (3 h after carrageenan), the edema (paw volume increase) worked out at 54.4 ± 8.9% and the “inhibitory percentage of edema” value is reported as 44.3%. In data set [1] (4 h after carrageenan), the edema (paw volume increase) came out at 53.6 ± 11.4% and the “inhibitory percentage of edema” value came to 33.5%.

Regarding `CC(=O)Oc1ccc(-c2[nH]c3ccc(Cl)cc3c2-c2ccc(S(C)(=O)=O)cc2)cc1` [Example 94, 2-(4-acetyloxyphenyl)-3-(4-methylsulfonylphenyl)-5-chloroindole], the melting point is 248 to 250 °C. The IC50 at COX-2 stood at 7.16 nM. Also, in data set [1] (2 h after carrageenan), the edema (paw volume increase) was determined as 58.8 ± 11.4% and the “inhibitory percentage of edema” value was 17.6%. Further, in data set [1] (3 h after carrageenan), the edema (paw volume increase) was determined as 62.1 ± 7.1% and the “inhibitory percentage of edema” value came out at 36.3%. In data set [1] (4 h after carrageenan), the edema (paw volume increase) was 56.4 ± 11.7% and the “inhibitory percentage of edema” value came to 30.0%.

`CS(=O)(=O)c1ccc(-c2c(-c3ccccc3)[nH]c3ccccc23)cc1` [Example 100, 2-phenyl-3-(4-methylsulfonylphenyl)indole] registered a melting point of 239 to 241 °C. Half-maximal inhibition on COX-2 (IC50) required 0.216 nM. For the same molecule, in data set [1] (2 h after carrageenan), the edema (paw volume increase) came out at 42.8 ± 15.1% and the “inhibitory percentage of edema” value worked out at 40.1%. For the same molecule, in data set [1] (3 h after carrageenan), the edema (paw volume increase) was 54.4 ± 7.9% and the “inhibitory percentage of edema” value turned out to be 44.3%. Further, in data set [1] (4 h after carrageenan), the edema (paw volume increase) turned out to be 43.5 ± 8.9% and the “inhibitory percentage of edema” value is recorded as 46.1%.

`NS(=O)(=O)c1ccc(-c2c(-c3ccccc3)[nH]c3ccccc23)cc1` [Example 101, 2-phenyl-3-(4-aminosulfonylphenyl)indole] had a melting point of 223 to 225 °C. Further, the 50% inhibitory concentration (IC50) on COX-2 amounted to 2.55 nM. In data set [1] (2 h after carrageenan), this molecule gave an edema (paw volume increase) of 36.6 ± 8.9%. Further, in data set [1] (3 h after carrageenan), the edema (paw volume increase) was 39.1 ± 15.4% and the “inhibitory percentage of edema” value worked out at 36.1%. Further, in data set [1] (4 h after carrageenan), the edema (paw volume increase) was found to be 33.6 ± 16.5% and the “inhibitory percentage of edema” value came to 44.2%.
